Experiment [1] deals with T1, human TLR7 (Homo sapiens, UniProt Q9NYK1).
T1 construct: host or cells: HEK-Blue TLR7 cells (engineered human embryonic kidney cells)
T1 sequence (Q9NYK1 27-1049): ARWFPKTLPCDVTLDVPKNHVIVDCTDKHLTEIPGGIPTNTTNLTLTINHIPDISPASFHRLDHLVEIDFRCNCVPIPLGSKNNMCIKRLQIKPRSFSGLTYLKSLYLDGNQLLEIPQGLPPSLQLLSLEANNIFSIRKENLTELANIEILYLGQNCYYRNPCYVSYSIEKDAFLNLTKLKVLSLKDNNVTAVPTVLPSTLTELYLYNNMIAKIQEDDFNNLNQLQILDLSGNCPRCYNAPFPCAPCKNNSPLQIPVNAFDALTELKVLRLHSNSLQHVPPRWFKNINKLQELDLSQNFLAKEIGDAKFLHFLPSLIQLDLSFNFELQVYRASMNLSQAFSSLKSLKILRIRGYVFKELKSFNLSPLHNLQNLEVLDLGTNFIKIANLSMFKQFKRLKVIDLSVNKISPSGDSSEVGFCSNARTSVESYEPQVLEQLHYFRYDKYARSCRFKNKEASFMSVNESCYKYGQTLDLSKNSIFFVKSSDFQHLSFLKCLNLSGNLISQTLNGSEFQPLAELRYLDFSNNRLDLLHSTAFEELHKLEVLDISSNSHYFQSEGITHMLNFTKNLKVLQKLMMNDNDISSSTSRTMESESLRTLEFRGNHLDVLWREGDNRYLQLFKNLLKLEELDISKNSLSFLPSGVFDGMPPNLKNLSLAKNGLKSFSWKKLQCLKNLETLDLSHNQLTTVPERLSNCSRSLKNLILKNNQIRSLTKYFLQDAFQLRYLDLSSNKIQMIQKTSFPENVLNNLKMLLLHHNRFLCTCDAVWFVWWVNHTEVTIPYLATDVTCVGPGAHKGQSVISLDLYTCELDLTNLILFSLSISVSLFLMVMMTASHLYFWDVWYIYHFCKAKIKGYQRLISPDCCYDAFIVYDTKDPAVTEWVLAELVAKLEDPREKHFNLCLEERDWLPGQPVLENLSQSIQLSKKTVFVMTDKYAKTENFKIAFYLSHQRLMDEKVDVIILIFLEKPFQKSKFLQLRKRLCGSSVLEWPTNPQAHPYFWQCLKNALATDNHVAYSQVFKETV
The experiment is described as follows: Human TLR7 agonist activity assay (HEK-Blue TLR7 SEAP reporter). Type of experiment: cell-based. The following applies: HEK-Blue TLR7 cells, 18 h treatment, average where assay was performed multiple times, read-out: hTLR7 Agonism EC50.
Experimental: This procedure describes a method for assaying human TLR7 (hTLR7) agonist activity of the compounds disclosed in this specification.
HEK-Blue™ TLR7 cells were added to each well of a 384-well tissue-culture plate (15,000 cells per well) and incubated 16-18 h at 37° C., 5% CO2. Compounds (100 nl) were dispensed into wells containing the HEK-Blue™ TLR cells and the treated cells were incubated at 37° C., 5% CO2. After 18 h treatment ten microliters of freshly-prepared Quanti-Blue™ reagent (Invivogen) was added to each well, incubated for 30 min (37° C., 5% CO2) and SEAP levels measured using an Envision plate reader (OD=620 nm).

In experiment [2] the test system is CD69. The experiment is described as follows: Induction of CD69 in human whole blood. Type of experiment: cell-based. On the procedure: The induction of Type I interferon (IFN) MX-1 genes and the B-cell activation marker CD69 are downstream events that occur upon activation of the TLR7 pathway. The following is a human whole blood assay that measures their induction in response to a TLR7 agonist.
Heparinized human whole blood was harvested from human subjects and treated with test TLR7 agonist compounds at 1 mM. The blood was diluted with RPMI 1640 media and Echo was used to predot 10 nL per well giving a final concentration of 1 uM (10 nL in 10 uL of blood). After mixing on a shaker for 30 sec, the plates were covered and placed in a 37° C. chamber for o/n=17 hrs. Fixing/lysis buffer was prepared (5×->1× in H2O, warm at 37° C.; Cat #BD 558049) and kept the perm buffer (on ice) for later use.
For surface markers staining (CD69): prepared surface Abs: 0.045 ul hCD14-FITC (ThermoFisher Cat #MHCD1401)+0.6 ul hCD19-ef450 (ThermoFisher Cat #48-0198-42)+1.5 ul hCD69-PE (cat #BD555531)+0.855 ul FACS buffer. Added 3 ul/well, spin1000 rpm for 1 min and mixed on shaker for 30 sec, put on ice for 30 mins. Stop stimulation after 30 min with 70 uL of prewarmed 1× fix/lysis buffer and use Feliex mate to resuspend (15 times, change tips for each plate) and incubate at 37 C for 10 min.
Centrifuge at 2000 rpm for 5 min aspirate with HCS plate washer, mix on shaker for 30 sec and then wash with 70 uL in dPBS and pelleted 2×s (2000 rpm for 5 min) and 50 ul wash in FACS buffer pelleted 1×s (2000 rpm for 5 min). Mix on shaker for 30 sec. For Intracellular markers staining (MX-1): Add 50 ul of BD Perm buffer III and mix on shaker for 30 sec. Incubate on ice for 30 minutes (in the dark). Wash with 50 uL of FACS buffer 2× (spin @2300 rpm×5 min after perm) followed by mixing on shaker for 30 sec. Resuspended in 20 ul of FACS buffer containing MX1 antibody ( )(4812)-Alexa 647: Novus Biologicals #NBP2-43704AF647) 20 ul FACS bf+0.8 ul hlgG+0.04 ul MX-1. Spin 1000 rpm for 1 min, mix on shaker for 30se and the samples were incubated at RT in the dark for 45 minutes followed by washing 2×FACS buffer (spin @2300 rpm×5 min after perm). Resuspend 20 ul (35 uL total per well) of FACS buffer and cover with foil and place in 4° C. to read the following day. Plates were read on iQuePlus. The results were loaded into toolset and […] curves are generated in curve master. The y-axis 100% is set to 1 uM of resiquimod.

Where [3] appears, read: human whole blood, 17 hrs, CD69 surface staining, 100% set to 1 uM of resiquimod, average where assay was performed multiple times, read-out: hWB CD69 EC50.
Setting [4] is: Homo sapiens, 17 h, read-out: hWB CD69 EC50 (nM).

15 compounds from patent US20230140430A1, “1H-PYRAZOLO[4,3-d]PYRIMIDINE COMPOUNDS AS TOLL-LIKE RECEPTOR 7 (TLR7) AGONISTS” (BRISTOL-MYERS SQUIBB COMPANY, priority 2020, published 2023) can be followed below.

Where two headings read alike, the source gives them in different places.

Broadly, the EC50 is the concentration at which the effect is half-maximal.

`COc1cc(C(=O)N2CCN(C)CC2)ccc1Cn1ncc2nc(N)nc(NCc3noc(C)n3)c21` [Compound 132, 1-{[2-methoxy-4-(4-methylpiperazine-1-carbonyl)phenyl]methyl}-N7-[(5-methyl-1,2,4-oxadiazo1-3-yl)methyl]-1H-pyrazolo[4,3-d]pyrimidine-5,7-diamine]: the values for the EC50 in experiment [1] and in experiment [2] (setting [3]) were 95.1 nM and 10.9 nM, respectively.

For `COc1cc(C(=O)NC2CCN(C)CC2)ccc1Cn1ncc2nc(N)nc(NCc3cc(C)on3)c21` [Compound 129, 4-[(5-amino-7-{[(5-methyl-1,2-oxazo1-3-yl)methyl]amino}-1H-pyrazolo[4,3-d]pyrimidin-1-yl)methyl]-3-methoxy-N-(1-methylpiperidin-4-yl)benzamide], the EC50 was determined as 1240 nM in experiment [1] and 67.7 nM in experiment [2] (setting [4]).

For `CCCCNc1nc(N)nc2cnn(Cc3ccc(C(=O)NC4CCC4)cc3OC)c12` [Compound 103, 4-{[5-amino-7-(butylamino)-1H-pyrazolo[4,3-d]pyrimidin-1-yl]methyl}-N-cyclobutyl-3-methoxybenzamide], the EC50 in experiment [1] was 1660 nM; in experiment [2] (setting [3]) it was at least 1000 nM.

For the compound `CCC[C@@H](CO)Nc1nc(N)nc2cnn(Cc3ccc(C(=O)NC4CCN(C)CC4)cc3OC)c12` [Compound 126, 4-[(5-amino-7-{[(2S)-1-hydroxypentan-2-yl]amino}-1H-pyrazolo[4,3-d]pyrimidin-1-yl)methyl]-3-methoxy-N-(1-methylpiperidin-4-yl)benzamide], the results for the EC50 in experiment [1] and in experiment [2] (setting [4]) were 5000 nM and 326 nM, respectively.

Regarding `CCC[C@@H](CCO)Nc1nc(N)nc2cnn(Cc3ccc(C(=O)NC4CCN(C)CC4)cc3OC)c12` [Compound 125, 4-[(5-amino-7-{[(3S)-1-hydroxyhexan-3-yl]amino}-1H-pyrazolo[4,3-d]pyrimidin-1-yl)methyl]-3-methoxy-N-(1-methylpiperidin-4-yl)benzamide], the EC50 in experiment [1] came out at 747 nM; in experiment [2] (setting [4]), 332 nM.

For the compound `CCC[C@@H](CCO)Nc1nc(N)nc2c(F)nn(Cc3ccc(C(=O)NC4CCN(C)CC4)cc3OC)c12` [Compound 128, 4-[(5-amino-3-fluoro-7-{[(3S)-1-hydroxyhexan-3-yl]amino}-1H-pyrazolo[4,3-d]pyrimidin-1-yl)methyl]-3-methoxy-N-(1-methylpiperidin-4-yl)benzamide], the results for the EC50 in experiment [1] and in experiment [2] (setting [4]) were 179 nM and 772 nM, respectively.

Take `CCC[C@@H](CCO)Nc1nc(N)nc2cnn(Cc3ccc(C(=O)N4CCN(CCO)CC4)cc3OC)c12` [Compound 123, (3S)-3-{[5-amino-1-({4-[4-(2-hydroxyethyl)piperazine-1-carbonyl]-2-methoxyphenyl}methyl)-1H-pyrazolo[4,3-d]pyrimidin-7-yl]amino}hexan-1-ol]: the EC50 in experiment [1] came out at 115 nM; in experiment [2] (setting [3]), 71.9 nM.

In the case of `CCCCNc1nc(N)nc2cnn(Cc3ccc(C(=O)N4CCN(CCO)CC4)cc3OC(F)F)c12` [Compound 120, 2-[4-(4-{[5-amino-7-(butylamino)-1H-pyrazolo[4,3-d]pyrimidin-1-yl]methyl}-3-(difluoromethoxy)benzoyl)piperazin-1-yl]ethan-1-ol], the EC50 in experiment [1] amounted to 1200 nM; in experiment [2] (setting [3]) it was 94.6 nM.

For `CCCCNc1nc(N)nc2c(C)nn(Cc3ccc(C(=O)N4CCN(CCO)CC4)cc3OC)c12` [Compound 118, 2-[4-(4-{[5-amino-7-(butylamino)-3-methyl-1H-pyrazolo[4,3-d]pyrimidin-1-yl]methyl}-3-methoxybenzoyl)piperazin-1-yl]ethan-1-ol], the EC50 in experiment [1] was 405 nM; in experiment [2] (setting [3]), 63.3 nM.

As for `CCCCNc1nc(N)nc2c(C)nn(Cc3ccc(C(=O)N4CCNC(=O)C4)cc3OC)c12` [Compound 119, 4-(4-{[5-amino-7-(butylamino)-3-methyl-1H-pyrazolo[4,3-d]pyrimidin-1-yl]methyl}-3-methoxybenzoyl)piperazin-2-one], the figures for the EC50 in experiment [1] and in experiment [2] (setting [3]) were 968 nM and 332 nM, respectively.

As for `CCCCNc1nc(N)nc2cnn(Cc3ccc(C(=O)N4CCN(C)CC4)cc3OC)c12` [Compound 106, N7-butyl-1-{[2-methoxy-4-(4-methylpiperazine-1-carbonyl)phenyl]methyl}-1H-pyrazolo[4,3-d]pyrimidine-5,7-diamine], the EC50 in experiment [1] is 20.8 nM; in experiment [2] (setting [3]), 4.5 nM.

Consider `CCCCNc1nc(N)nc2cnn(Cc3ccc(C(=O)N4CCC(CO)CC4)cc3OC)c12` [Compound 112, [1-(4-{[5-amino-7-(butylamino)-1H-pyrazolo[4,3-d]pyrimidin-1-yl]methyl}-3-methoxybenzoyl)piperidin-4-yl]methanol], for which the EC50 in experiment [1] amounted to 154 nM; in experiment [2] (setting [3]), 81.9 nM.

In the case of `CCCCNc1nc(N)nc2cnn(Cc3ccc(C(=O)NC4CCN(C)CC4)cc3OC)c12` [Compound 114, 4-{[5-amino-7-(butylamino)-1H-pyrazolo[4,3-d]pyrimidin-1-yl]methyl}-3-methoxy-N-(1-methylpiperidin-4-yl)benzamide], the EC50 in experiment [1] came to 68.9 nM; in experiment [2] (setting [4]), 24.4 nM.

With `CCCCNc1nc(N)nc2cnn(Cc3ccc(C(=O)N4CCCN(C)CC4)cc3OC)c12` [Compound 110, N7-butyl-1-{[2-methoxy-4-(4-methyl-1,4-diazepane-1-carbonyl)phenyl]methyl}-1H-pyrazolo[4,3-d]pyrimidine-5,7-diamine], the EC50 in experiment [1] is 16.3 nM; in experiment [2] (setting [3]) it was 3.9 nM.

Regarding `CCC1CC(CNc2nc(N)nc3cnn(Cc4ccc(C(=O)NC5CCN(C)CC5)cc4OC)c23)C1` (stereo not drawn) [Compound 124, 4-[(5-amino-7-{[(3-ethylcyclobutyl)methyl]amino}-1H-pyrazolo[4,3-d]pyrimidin-1-yl)methyl]-3-methoxy-N-(1-methylpiperidin-4-yl)benzamide], the figures for the EC50 in experiment [1] and in experiment [2] (setting [4]) were 508 nM and 95.4 nM, respectively.
